One may read the inhibition as the change of the read-out against control, counted positive when it falls.

In this experiment the target is T1, Tyrosine-protein kinase Mer (Homo sapiens) (UniProt Q12866).
T1 sequence (whole entry): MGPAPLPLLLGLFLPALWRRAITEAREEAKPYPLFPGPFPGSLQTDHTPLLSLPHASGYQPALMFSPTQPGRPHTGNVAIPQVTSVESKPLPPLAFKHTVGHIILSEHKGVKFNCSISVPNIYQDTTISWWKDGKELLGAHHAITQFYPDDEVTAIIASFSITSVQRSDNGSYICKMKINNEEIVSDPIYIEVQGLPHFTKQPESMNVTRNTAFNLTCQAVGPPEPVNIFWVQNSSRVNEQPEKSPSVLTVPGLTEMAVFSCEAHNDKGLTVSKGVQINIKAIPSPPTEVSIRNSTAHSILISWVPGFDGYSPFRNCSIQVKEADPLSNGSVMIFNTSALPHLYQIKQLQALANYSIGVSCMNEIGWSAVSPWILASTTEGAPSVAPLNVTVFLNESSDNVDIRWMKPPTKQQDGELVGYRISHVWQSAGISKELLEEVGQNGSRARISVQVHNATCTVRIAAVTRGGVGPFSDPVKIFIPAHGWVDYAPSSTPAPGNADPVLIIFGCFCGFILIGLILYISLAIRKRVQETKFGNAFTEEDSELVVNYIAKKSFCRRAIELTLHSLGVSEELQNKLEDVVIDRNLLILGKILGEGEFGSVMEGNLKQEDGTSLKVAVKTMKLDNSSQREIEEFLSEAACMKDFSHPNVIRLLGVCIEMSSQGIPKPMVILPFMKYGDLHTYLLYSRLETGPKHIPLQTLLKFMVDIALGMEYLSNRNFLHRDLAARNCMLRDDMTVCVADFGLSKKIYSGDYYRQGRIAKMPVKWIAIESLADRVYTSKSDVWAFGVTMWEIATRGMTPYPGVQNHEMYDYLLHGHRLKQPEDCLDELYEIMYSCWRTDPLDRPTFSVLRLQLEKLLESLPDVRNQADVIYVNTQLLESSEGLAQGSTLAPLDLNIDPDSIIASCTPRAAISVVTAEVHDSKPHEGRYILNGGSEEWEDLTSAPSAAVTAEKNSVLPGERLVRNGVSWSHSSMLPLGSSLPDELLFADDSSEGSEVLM
The conditions noted are these: at 10 µM.
On to `COc1ccc(-c2nn3ncccc3c2-c2ccnc(Nc3ccc4c(c3)OCCO4)n2)cc1`, for which the inhibition was found to be 0%.

Compound `Fc1ccc(-c2ncn(C3CCNCC3)c2-c2ccnc(Oc3ccccc3)n2)cc1` returned an inhibition of 31%.

`NS(=O)(=O)c1ccc(N/N=C2\C(=O)Nc3ccc(Cl)cc32)cc1` displayed an inhibition of 2%.

With `O=C1Nc2ccc(-c3cccnc3)cc2C1=Cc1cc(Br)c(O)c(Br)c1`, the inhibition was found to be 1%.
